Test results from patent publication US20240382487A1, “NOVEL COPI/ARF1-LIPOLYSIS PATHWAY INHIBITOR AND COMPOUND FOR ERADICATING CANCER STEM CELLS AND INDUCING DAMP-MEDIATED ANTI-TUMOR IMMUNE RESPONSE” (FUDAN UNIVERSITY, priority 2020, published 2024).

Assays:
Arf1 = target: T1, Arf1 (Homo sapiens, UniProt P84077); assay: Active Arf1 Pull-Down and Detection Kit (GTP-bound Arf1); format: biochemical; details: liver cancer Huh-7 cell lysate; FIG. 1
T1 construct: Active Arf1 was detected by using The Thermo Scientific Pierce Active Arf1 Pull-Down and Detection Kit (Cat #16121) with liver cancer Huh-7 cell lysate; endogenous in cells; host or cells: Huh-7 liver cancer cells (lysate)
Source text: Active Arf1 was detected by using The Thermo Scientific Pierce Active Arf1 Pull-Down and Detection Kit (Cat #16121) with liver cancer Huh-7 cell lysate. It is a complete kit for selective enrichment and detection of GTP-bound Arf1 GTPase through specific protein interaction with the GGA3 protein-binding domain (FIG. 1).

tumor cells = assay: Tumor cytotoxicity experiments in vitro (all lines, general statements); format: cell-based; details: HT29, LoVo, Huh7, H460, A549; FIG. 2-7
Source text: (§1) In different tumor cytotoxicity experiments in vitro (FIG. 2-FIG. 7), including colorectal cancer cell lines HT29 and LoVo cells, liver cancer cell Huh7, lung cancer cells H460 and A549, the arf1 inhibitor could all inhibit tumor cell growth (FIG. 2-FIG. 6), and there was a dose-dependent manner (FIG. 7).

[1] = tested on: Drosophila stem cell tumors; assay: Drosophila screen (stem cell / intestinal tumors); format: in vivo
Source text: (§2) We tested 10 reported Arf1 inhibitors (Bill et al., 2011; Boal et al., 2010; Feng et al., 2004; Newton et al., 2006; Ohashi et al., 2012; Sáenz et al., 2009; Sorieul et al., 2011; Viaud et al., 2007), including brefeldin A (BFA), Golgicide A (GCA), LM11, Secin16, Secin H3, Secin B7, Exo1, Exo2, LG8, and LG18, on Drosophila stem cell tumors and normal human bone marrow hematopoietic stem cells (HSCs).

mice = assay: Toxicity in mice, oral gavage; format: in vivo
[2] = tested on: liver tumors in MYC-ON mice; assay: MYC-ON liver tumor model; format: in vivo; details: gavage, 5 per week for 4 weeks, analyzed 10 weeks later
Source text: We used the Tet system to generate transgenic mice conditionally expressing the myc pro-oncogene in hepatocytes, […] myc/lap TTA (lt2-myc) (shachaf et al., 2004). We crossed tre-myc mice with a transgenic line, lap TTA. in which the liver activator protein (LAP) promoter drives the expression of tetracycline trans-activator protein (TTA) in hepatocytes. We confirmed this by discontinuing the feeding of doxycycline (myc-ON) activated myc transgene expression in 3-week-old mice. Subsequently. all transgenic mice overexpressing myc succumbed to liver tumors with a mean latency to tumor onset of 12 weeks, as previously reported (shachaf et al., 2004). In this lap TTA/tet-off myc conditional transgenic mouse model, myc overexpression in adult mice reproducibly induces liver cancer, similar to hepatocellular carcinoma and/or hepatoblastoma. The transgenic tumor invades the entire liver locally and is frequently associated with malignant peritoneal effusions that spread to the thoracic cavity by metastasis and invade the lung parenchyma.
For the mouse liver tumor model, mating cages and weaning cages were administrated by a grain based rodent diet (Bio-Serv. Cat #14-727-450) containing 200 mg/kg doxycycline, and the mice were induced tumors at 6 weeks of age, by changing to a normal diet. Mice were divided into three groups, control, Du 101 treated and du102 treated. The control group was given 100 by gavage using a feeding tube 100 μl/10 g body weight (BW) 20% DMSO+80% corn oil. Du 101 treated groups were treated with 25 mg/ml Du 101. The stock solution was diluted 1:4 with corn oil to make the working solution. Dul02 treatment groups were treated with 25 mg/ml du102 stock solution diluted 1:4 with corn oil to make working solutions. The mixed working solution was administered to mice by gavage using a feeding tube. Starting from the second week of myc-0n, 5 injections per week ([…]) were given for 4 weeks, mice were monitored every 2 days, and 10 weeks later mice were euthanized and analyzed for tumor growth.
For the myc-on liver tumor model, antibodies were i.p. Mg/kg) was injected once a week for 5 consecutive weeks, the first Doxycycline was discontinued weekly after injection. Antibodies used to treat mice were as follows: anti-CD4 (clone GK1.5, BioXcell, Cat #BE0003-1), anti-CD8 a (clone 2.43, BioXcell, Cat #BE0061) Or […] rat IgG (bioxcell, cat #be0094) isotype control antibody. From the second week of myc-on initiation lasted for 4 weeks, Du 102 and DMSO were administered by gavage needle as described above, mice were monitored every 2 days, and 10 weeks later mice were euthanized and analyzed for tumor growth.
For the myc-on liver tumor model, antibodies were i.p. Injection once a week for 5 weeks, and doxycycline was discontinued weekly after the first injection. Antibodies used to treat mice were as follows: 100 ug/mouse Armenian hamster anti mouse PD1 (J43, bioxcell, cat #be0033-2) and 100 ug/mouse Armenian hamster isotype IgG (bioxcell. cat #bp0091) was used as controls. For 4 weeks from the second week of myc-on, Du 102 and DMSO were administered by gavage needle as described above, mice were monitored every 2 days. and 10 weeks later mice were euthanized and analyzed for tumor growth. Coadministration of anti-PD-1 antibodies may allow the use of lower, less toxic doses of du102, thus avoiding known side effects.

[3] = tested on: normal human bone marrow hematopoietic stem cells (HSCs); assay: Toxicity on normal hematopoietic stem cells
Source text: as §2

[4] = tested on: colorectal cancer cell line HT29; assay: In vitro cell line screening, HT29; format: cell-based
Source text: as §1

[5] = tested on: colorectal cancer cell line LoVo; assay: In vitro cell line screening, LoVo; format: cell-based
Source text: as §1

liver cancer cell Huh7 = assay: In vitro cell line screening, Huh7; format: cell-based
Source text: as §1

lung cancer cells H460 = assay: In vitro cell line screening, H460; format: cell-based
Source text: as §1

lung cancer cells A549 = assay: In vitro cell line screening, A549; format: cell-based
Source text: as §1

T1 sequence (P84077 whole entry): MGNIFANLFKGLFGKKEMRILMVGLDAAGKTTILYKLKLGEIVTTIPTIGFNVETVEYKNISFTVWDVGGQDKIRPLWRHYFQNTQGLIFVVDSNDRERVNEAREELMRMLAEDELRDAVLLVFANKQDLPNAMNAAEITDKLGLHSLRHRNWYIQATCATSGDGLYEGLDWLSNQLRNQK

Row | Compound | inhibition of arf1 activation (Arf1) | tumor suppressive / inhibitory effect on tumor cells (tumor cells) | in vivo tumor suppressive effects ([1]; Drosophila screen, FIG. 8) | killing Drosophila stem cell tumors ([1]; in vivo) | toxic effects (mice; oral gavage for 60 consecutive days, FIG. 10) | toxic effects (mice; up to 50 mg/kg by oral gavage for 21 consecutive days, FIG. 9) | liver tumor numbers [2] | toxicity (killing normal HSCs) [3] | tumor suppressive effect [4] | tumor suppressive effect [5] | tumor suppressive effect (liver cancer cell Huh7) | tumor suppressive effect (lung cancer cells H460) | tumor suppressive effect (lung cancer cells A549)
1 | C(=N\Nc1ncnc2sc3c(c12)CCCC3)/c1ccc2[nH]ccc2c1 [Du 101] | potent inhibitors | Some Tumor Suppressive Effect | good in vivo tumor suppressive effects | effective | induced toxic effects | no toxic effects were observed | 44.7 | relatively low toxicity |  |  |  |  | 
2 | Cc1ccc(/C=C/Cc2cccc3c2C2=C(CCCC2)C3)cc1C [compound 104] |  |  |  |  |  |  |  |  | effective tumor suppressive effects | effective tumor suppressive effects | effective tumor suppressive effects | effective tumor suppressive effects | effective tumor suppressive effects
3 | C1=Cc2cc(/C=C/Cc3cccc4c3C3=C(CCCC3)C4)ccc2C1 [compound 107] |  |  |  |  |  |  |  |  | effective tumor suppressive effects | effective tumor suppressive effects | effective tumor suppressive effects | effective tumor suppressive effects | effective tumor suppressive effects
4 | C(=C\c1ccccc1)/Cc1cccc2c1C1=C(CCCCCC1)C2 [compound 109] |  |  |  |  |  |  |  |  | effective tumor suppressive effects | effective tumor suppressive effects | effective tumor suppressive effects | effective tumor suppressive effects | effective tumor suppressive effects
